Patent US4672036A, “Pure cultures of Kibdelsporangium aridum Shearer gen. nov., sp. nov. ATCC 39323 and mutants thereof” (SmithKline Beckman Corporation, priority 1985, dated 1987)
≈ marks a conversion by molar mass, not a printed value. Where “and” joins values, the source holds several entries; their conditions need not be identical. Equal values may be shown once. Read-outs that look alike come from different tables or passages of the source.

What was measured:
solubility = format: physicochemical
[1] = tested on: Serratia marcesens ATCC 13880; format: cell-based; settings: Table A
[2] = tested on: Fusobacterium nucleatum ATCC 25586; format: cell-based; settings: Table D, Anaerobes
[3] = tested on: Clostridium perfringens MCP-1; settings: Table D, Anaerobes
rumen in vitro model [4] = assay: rumen in vitro model (growth promotant activity); parameters: species or system steer
Experimental: The protocol for the rumen in vitro model is analogous to the protocol for the swine in vitro model with the following modifications:
(1) A 400 kg steer is surgically prepared with a rumen cannula.
(2) The animal is fed one time a day with the following ration:
(3) Manipulation of VFA production is described as the production ratio of propionate as a percentage of total VFA produced.
(4) Sampling of the material, via the cannula, is at 120 minutes post feeding.

Strep. faecilis HH34358 = format: cell-based; settings: Table A
[5] = tested on: Enterobacter cloacae HH31254; format: cell-based; settings: Table A
[6] = tested on: Proteus mirabilis SK & F 444; format: cell-based; settings: Table A
[7] = tested on: Staph. aureus SK & F 2613; format: cell-based; settings: Table B, Methicillin Sensitive
B. fragilis H145 = format: cell-based, Bacteroides fragilis; settings: Table D, Anaerobes
[8] = tested on: Bacteroides fragilis ATCC 25285; format: cell-based; settings: Table D, Anaerobes
[9] = tested on: B. thetaiotamicron SK & F 3089; format: cell-based; settings: Table D, Anaerobes
[10] = tested on: E. coli 12140 (SK & F 809); format: cell-based
[11] = tested on: Listeria monocytogenes SK & F 2255; format: cell-based; settings: Table A
[12] = tested on: Proteus morgani SK & F 179; format: cell-based; settings: Table A
B. loeochii SK & F 3087 = format: cell-based; settings: Table D, Anaerobes
C. perfringens MCP-2 = settings: Table D, Anaerobes
[13] = tested on: Salmonella gallinarum BC595
Providencia SK & F 276 = format: cell-based; settings: Table A
B. fragilis SK & F 3060 = format: cell-based, Bacteroides fragilis; settings: Table D, Anaerobes
[14] = tested on: Pseudomonas aeruginosa HH63; format: cell-based; settings: Table A
rumen in vitro model [15] = assay: rumen in vitro model (growth promotant activity); parameters: species or system steer; remark: listed apart in the source
Swine in vitro model = assay: swine in vitro model (growth promotant activity)
[16] = tested on: Kleb. pneumoniae 4200 (SK & F 798); format: cell-based; settings: Table A
[17] = tested on: C. perfringens ATCC 19408; settings: Table D, Anaerobes
[18] = tested on: Staph. aureus SK & F 674-P6 Mutant; assay: microbe, parasite or virus in culture; format: cell-based; settings: Table E
[19] = tested on: Strep. faecalis SK & F 657; format: cell-based; settings: Table E
[20] = tested on: Staph. epidermidis SK & F 2265; format: cell-based; settings: Table E
[21] = tested on: Staph. aureus 209P-Mutant; assay: microbe, parasite or virus in culture; format: cell-based; settings: Table E
[22] = tested on: Staph. epidermidis SK & F 2683; format: cell-based; settings: Table E
[23] = H2O, methanol, dimethylsulfoxide, dimethylformamide
[24] = ethanol, acetonitrile, acetone, diethylether, aliphatic hydrocarbons

| SMILES | solubility (solubility; [23]) | solubility (solubility; [24]) | MIC [1] | MIC [2] | MIC [3] | VFA (total of volatile fatty acids) (rumen in vitro model [4]) | MIC (Strep. faecilis HH34358) | MIC [5] | MIC [6] | MIC [8] | MIC [9] | MIC ([10]; Table A) | MIC [12] | MIC ([13]; Table A) | MIC (Providencia SK & F 276) | MIC (B. fragilis SK & F 3060) | MIC [14] | LYS (lysine) (rumen in vitro model [15]) | GLU (glucose) (Swine in vitro model) | MIC [16] | also measured |
| --- | --- | --- | --- | --- | --- | --- | --- | --- | --- | --- | --- | --- | --- | --- | --- | --- | --- | --- | --- | --- | --- |
| CN[C@H]1C(=O)N[C@H]2C(=O)N[C@H](C(=O)N[C@H]3C(=O)N[C@H]4C(=O)N[C@H](C(=O)N[C@H](C(=O)O)c5cc(O)cc(O[C@H]6O[C@H](CO)[C@@H](O)[C@H](O)[C@@H]6O)c5-c5cc4ccc5O)[C@H](O)c4cc(Cl)c(c(Cl)c4)Oc4cc3cc(c4O[C@@H]3O[C@H](C(=O)O)[C@@H](O)[C@H](O)[C@H]3NC(=O)CCCCCCCCC(C)C)Oc3ccc(cc3Cl)[C@H]2O)c2cc(cc(O)c2Cl)Oc2cc1ccc2O | soluble | insoluble | > 100 µg/mL | 32 µg/mL (≈ 17.6 µM) | ≤ 0.016 µg/mL | 111 % Control | 0.8 µg/mL (≈ 0.44 µM) | > 100 µg/mL | > 100 µg/mL | 32 µg/mL (≈ 17.6 µM) | 32 µg/mL (≈ 17.6 µM) | > 100 µg/mL | > 100 µg/mL | > 100 µg/mL | > 100 µg/mL | 16 µg/mL (≈ 8.8 µM) | > 100 µg/mL | 110 % Control and 103 % Control | 191 % Control and 188 % Control and 96 % Control | > 100 µg/mL | Propionate % (rumen in vitro model [4]): 120 % Control; MIC [7]: 1.6 µg/mL (≈ 0.88 µM); MIC (B. fragilis H145): 8 µg/mL (≈ 4.4 µM); MIC [11]: ~ 0.4 μg/ml; MIC (B. loeochii SK & F 3087): 4 µg/mL (≈ 2.2 µM); MIC (C. perfringens MCP-2): ≤ 0.016 µg/mL |
| CN[C@H]1C(=O)N[C@H]2C(=O)N[C@H](C(=O)N[C@H]3C(=O)N[C@H]4C(=O)N[C@H](C(=O)N[C@H](C(=O)O)c5cc(O)cc(O[C@H]6O[C@H](CO)[C@@H](O)[C@H](O)[C@@H]6O)c5-c5cc4ccc5O)[C@H](O)c4cc(Cl)c(c(Cl)c4)Oc4cc3cc(c4O[C@@H]3O[C@H](C(=O)O)[C@@H](O)[C@H](O)[C@H]3NC(=O)CCCCCCCC(C)C)Oc3ccc(cc3Cl)[C@H]2O)c2cc(cc(O)c2Cl)Oc2cc1ccc2O [AAD 216B] | soluble | insoluble | > 100 µg/mL | 32 µg/mL (≈ 17.7 µM) | 0.125 µg/mL (≈ 0.0693 µM) | 111 % Control and 121 % Control | 0.4 µg/mL (≈ 0.222 µM) | > 100 µg/mL | > 100 µg/mL | 32 µg/mL (≈ 17.7 µM) | 32 µg/mL (≈ 17.7 µM) | > 100 µg/mL | > 100 µg/mL | > 100 µg/mL | > 100 µg/mL | 16 µg/mL (≈ 8.87 µM) | > 100 µg/mL | 124 % Control and 107 % Control and 103 % Control | 190 % Control and 184 % Control and 97 % Control | > 100 µg/mL | MIC [7]: 1.6 µg/mL (≈ 0.887 µM); MIC (B. fragilis H145): 16 µg/mL (≈ 8.87 µM); MIC [11]: 0.4 µg/mL (≈ 0.222 µM); MIC (B. loeochii SK & F 3087): 16 µg/mL (≈ 8.87 µM); MIC [17]: 0.125 µg/mL (≈ 0.0693 µM); MIC (C. perfringens MCP-2): 0.125 µg/mL (≈ 0.0693 µM); LYS (lysine) (Swine in vitro model): 50 % Control and 55 % Control |
| CCCCCCCCCC(=O)N[C@H]1[C@H](Oc2c3cc4cc2Oc2c(Cl)cc(cc2Cl)[C@@H](O)[C@@H]2NC(=O)[C@H](NC(=O)[C@@H]4NC(=O)[C@H]4NC(=O)[C@H](NC(=O)[C@H](NC)c5ccc(O)c(c5)Oc5cc(O)c(Cl)c4c5)[C@H](O)c4ccc(c(Cl)c4)O3)c3ccc(O)c(c3)-c3c(O[C@H]4O[C@H](CO)[C@@H](O)[C@H](O)[C@@H]4O)cc(O)cc3[C@@H](C(=O)O)NC2=O)O[C@H](C(=O)O)[C@@H](O)[C@@H]1O [AAD 216A] | soluble | insoluble | > 100 µg/mL | 32 µg/mL (≈ 17.9 µM) | – | 111 % Control and 94 % Control | – | > 100 µg/mL | > 100 µg/mL | 32 µg/mL (≈ 17.9 µM) | > 32 µg/mL | > 100 µg/mL | > 100 µg/mL | > 100 µg/mL | > 100 µg/mL | 32 µg/mL (≈ 17.9 µM) | > 100 µg/mL | 114 % Control | 187 % Control and 191 % Control | > 100 µg/mL | MIC [18]: ~ 100 μg/ml; MIC [19]: 0.8 µg/mL (≈ 0.447 µM); MIC ([10]; Table E): > 100 µg/mL; MIC [20]: 100 µg/mL (≈ 55.9 µM); MIC [21]: 100 µg/mL (≈ 55.9 µM); MIC ([13]; Table E): > 100 µg/mL; LYS (lysine) (Swine in vitro model): 63 % Control and 50 % Control and 94 % Control; MIC [22]: 100 µg/mL (≈ 55.9 µM) |
